pIC50: −log10 of the molar value.
Molecular target: Transcription factor p65 (Human, UniProt Q04206)
Test: Inhibition of TNF alpha stimulated NF-KappaB p65 in human HeLa nuclear extract assessed as decrease in NF-KappaB translocation to nucleus measured after 5 hrs by ELISA

Chain of Transcription factor p65 (Q04206 whole entry): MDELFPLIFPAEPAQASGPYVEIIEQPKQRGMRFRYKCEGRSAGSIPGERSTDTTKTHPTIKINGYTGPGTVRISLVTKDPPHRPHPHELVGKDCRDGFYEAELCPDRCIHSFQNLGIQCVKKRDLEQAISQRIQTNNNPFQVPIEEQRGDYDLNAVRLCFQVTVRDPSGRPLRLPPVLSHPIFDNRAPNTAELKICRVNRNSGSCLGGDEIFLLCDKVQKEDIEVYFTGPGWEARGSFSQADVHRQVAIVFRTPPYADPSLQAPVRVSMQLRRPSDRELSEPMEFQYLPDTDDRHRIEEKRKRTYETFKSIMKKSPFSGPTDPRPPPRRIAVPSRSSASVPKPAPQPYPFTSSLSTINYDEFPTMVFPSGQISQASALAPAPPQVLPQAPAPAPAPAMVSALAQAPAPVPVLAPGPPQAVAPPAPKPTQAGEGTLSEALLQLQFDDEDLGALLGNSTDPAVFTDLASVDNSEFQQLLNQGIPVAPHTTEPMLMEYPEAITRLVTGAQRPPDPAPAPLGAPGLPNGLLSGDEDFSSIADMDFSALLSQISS

C[C@H]1O[C@@H](O[C@H]2CC[C@]3(C)[C@H]4CC[C@]5(C)[C@@H](C6=CC(=O)OC6)CC[C@]5(O)[C@@H]4CC[C@]3(O)C2)C[C@H](O)[C@@H]1O[C@@H]1O[C@H](CO)[C@@H](O)[C@H](O)[C@H]1O
pIC50: 5.37
